Assay results taken from PMC5957549 (Nature, 2017).

Columns and labels:
[1] = target: Prostanoid EP4 (Homo sapiens, UniProt P35408); assay: Radioligand displacement; format: binding; details: read-out: Inhib. (%)
[2] = test system: Swiss Webster mice; assay: Open field hyperlocomotor activity assay; format: in vivo
[3] = test system: Swiss Webster mice; assay: Conditioned place preference; format: in vivo; details: training with fenethylline 20 mg/kg
[4] = test system: Phorbol Ester; assay: Radioligand displacement; format: binding; details: 10 μM fenethylline, average of two replicates
[5] = target: Adrenergic α2A (Homo sapiens, UniProt P08913); assay: Radioligand displacement; format: binding; details: read-out: Inhib. (%)
Sequence of Adrenergic α2A (P08913 whole entry): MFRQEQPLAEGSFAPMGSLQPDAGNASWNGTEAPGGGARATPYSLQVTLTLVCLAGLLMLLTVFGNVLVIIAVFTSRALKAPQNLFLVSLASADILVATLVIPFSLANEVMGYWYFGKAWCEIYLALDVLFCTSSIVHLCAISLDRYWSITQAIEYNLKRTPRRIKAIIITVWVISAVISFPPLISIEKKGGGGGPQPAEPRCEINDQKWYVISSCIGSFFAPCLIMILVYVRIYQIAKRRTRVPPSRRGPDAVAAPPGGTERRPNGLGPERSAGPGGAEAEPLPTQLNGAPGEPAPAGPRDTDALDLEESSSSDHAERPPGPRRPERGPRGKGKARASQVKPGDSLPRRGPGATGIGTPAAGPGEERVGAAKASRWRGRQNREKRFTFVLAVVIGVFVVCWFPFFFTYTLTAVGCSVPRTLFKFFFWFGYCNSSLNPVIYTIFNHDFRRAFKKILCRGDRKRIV

[6] = format: in vivo, Swiss Webster mice; details: fenethylline 50 mg/kg vs amphetamine 5 mg/kg
[7] = test system: suite of 31 CNS targets; assay: Binding across a suite of 31 CNS targets; details: 10 μM
[8] = test system: Nicotinic Ach; assay: Radioligand displacement; format: binding; details: 10 μM fenethylline, average of two replicates
[9] = target: Sigma σ1 (Homo sapiens, UniProt Q99720); assay: Radioligand displacement; format: binding; details: read-out: Inhib. (%)
Sequence of Sigma σ1 (Q99720 whole entry): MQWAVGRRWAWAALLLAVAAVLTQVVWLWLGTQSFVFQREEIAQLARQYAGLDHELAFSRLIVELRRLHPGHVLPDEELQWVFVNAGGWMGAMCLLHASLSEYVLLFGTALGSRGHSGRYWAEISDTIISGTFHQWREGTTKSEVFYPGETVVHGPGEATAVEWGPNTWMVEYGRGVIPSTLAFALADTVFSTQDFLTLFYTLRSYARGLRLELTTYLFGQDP

[10] = test system: L-Type Ca Channel; assay: Radioligand displacement; format: binding; details: 10 μM fenethylline, average of two replicates
[11] = target: Adrenergic β2 (Homo sapiens, UniProt P07550); assay: Radioligand displacement; format: binding; details: read-out: Inhib. (%)
[12] = target: Nicotinic Ach α1 (Homo sapiens, UniProt P02708+P07510+Q07001); assay: Radioligand displacement; format: binding; details: read-out: Inhib. (%)
Sequence of Nicotinic Ach α1 (P02708 21-457): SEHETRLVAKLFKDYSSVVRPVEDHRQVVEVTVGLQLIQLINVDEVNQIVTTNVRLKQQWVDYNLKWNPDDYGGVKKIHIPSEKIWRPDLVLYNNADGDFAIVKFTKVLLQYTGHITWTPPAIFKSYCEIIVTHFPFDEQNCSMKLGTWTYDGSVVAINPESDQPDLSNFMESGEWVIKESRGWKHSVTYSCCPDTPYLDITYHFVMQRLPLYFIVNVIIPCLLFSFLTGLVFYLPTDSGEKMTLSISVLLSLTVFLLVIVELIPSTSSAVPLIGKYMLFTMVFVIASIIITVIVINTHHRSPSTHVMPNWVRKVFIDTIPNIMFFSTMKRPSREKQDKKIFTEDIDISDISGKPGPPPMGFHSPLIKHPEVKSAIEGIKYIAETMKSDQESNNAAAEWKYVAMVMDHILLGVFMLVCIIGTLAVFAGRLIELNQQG
Sequence of Nicotinic Ach α1 (P11230 24-501 partner): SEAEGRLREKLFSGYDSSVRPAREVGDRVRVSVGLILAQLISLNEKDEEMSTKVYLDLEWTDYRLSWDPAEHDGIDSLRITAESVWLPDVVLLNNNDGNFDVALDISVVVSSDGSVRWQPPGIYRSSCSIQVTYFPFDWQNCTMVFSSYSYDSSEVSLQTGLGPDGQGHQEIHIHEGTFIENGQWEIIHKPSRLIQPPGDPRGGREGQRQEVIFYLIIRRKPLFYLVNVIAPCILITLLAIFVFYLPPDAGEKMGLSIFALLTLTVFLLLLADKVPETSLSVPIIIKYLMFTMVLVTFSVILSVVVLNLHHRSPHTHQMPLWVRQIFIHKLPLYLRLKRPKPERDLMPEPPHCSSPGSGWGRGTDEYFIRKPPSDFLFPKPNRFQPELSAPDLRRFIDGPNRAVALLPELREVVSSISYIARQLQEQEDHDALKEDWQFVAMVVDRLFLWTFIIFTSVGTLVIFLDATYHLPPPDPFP
Sequence of Nicotinic Ach α1 (Q07001 22-517): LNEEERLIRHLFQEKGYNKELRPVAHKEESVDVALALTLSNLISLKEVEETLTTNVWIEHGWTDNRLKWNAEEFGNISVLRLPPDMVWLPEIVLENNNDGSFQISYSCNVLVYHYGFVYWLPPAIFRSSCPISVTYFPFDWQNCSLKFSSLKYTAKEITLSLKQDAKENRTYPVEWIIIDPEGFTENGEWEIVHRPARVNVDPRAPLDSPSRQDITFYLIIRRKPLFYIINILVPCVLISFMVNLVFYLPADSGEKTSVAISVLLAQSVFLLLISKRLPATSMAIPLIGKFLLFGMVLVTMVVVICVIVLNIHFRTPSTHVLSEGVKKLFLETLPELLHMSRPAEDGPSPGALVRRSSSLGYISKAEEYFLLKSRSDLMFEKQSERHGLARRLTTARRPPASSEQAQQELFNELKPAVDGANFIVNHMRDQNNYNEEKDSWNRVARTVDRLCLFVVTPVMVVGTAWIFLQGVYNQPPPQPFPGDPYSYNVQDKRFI
Sequence of Nicotinic Ach α1 (P07510 23-517): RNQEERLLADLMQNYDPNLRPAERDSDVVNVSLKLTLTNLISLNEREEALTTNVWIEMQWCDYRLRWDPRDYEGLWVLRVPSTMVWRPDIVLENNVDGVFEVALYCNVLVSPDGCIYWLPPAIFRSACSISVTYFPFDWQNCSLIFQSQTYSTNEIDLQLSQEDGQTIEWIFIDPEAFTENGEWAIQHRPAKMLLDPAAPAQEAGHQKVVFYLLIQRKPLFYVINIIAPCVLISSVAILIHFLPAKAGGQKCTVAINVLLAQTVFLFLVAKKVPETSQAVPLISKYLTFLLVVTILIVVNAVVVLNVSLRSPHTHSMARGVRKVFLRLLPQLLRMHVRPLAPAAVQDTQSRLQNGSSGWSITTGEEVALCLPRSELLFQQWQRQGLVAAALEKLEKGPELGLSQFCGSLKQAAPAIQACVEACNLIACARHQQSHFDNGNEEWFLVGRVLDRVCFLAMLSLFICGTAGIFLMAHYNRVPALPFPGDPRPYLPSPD

[13] = target: Cannabinoid CB1 (Homo sapiens, UniProt P21554); assay: Radioligand displacement; format: binding; details: read-out: Inhib. (%)
[14] = test system: Glutamate – NMDA; assay: Radioligand displacement; format: binding; details: 10 μM fenethylline, average of two replicates
[15] = target: AdenosineA2A (Homo sapiens, UniProt P29274); assay: Radioligand displacement; format: binding; details: read-out: Inhib. (%)
Sequence of AdenosineA2A (P29274 whole entry): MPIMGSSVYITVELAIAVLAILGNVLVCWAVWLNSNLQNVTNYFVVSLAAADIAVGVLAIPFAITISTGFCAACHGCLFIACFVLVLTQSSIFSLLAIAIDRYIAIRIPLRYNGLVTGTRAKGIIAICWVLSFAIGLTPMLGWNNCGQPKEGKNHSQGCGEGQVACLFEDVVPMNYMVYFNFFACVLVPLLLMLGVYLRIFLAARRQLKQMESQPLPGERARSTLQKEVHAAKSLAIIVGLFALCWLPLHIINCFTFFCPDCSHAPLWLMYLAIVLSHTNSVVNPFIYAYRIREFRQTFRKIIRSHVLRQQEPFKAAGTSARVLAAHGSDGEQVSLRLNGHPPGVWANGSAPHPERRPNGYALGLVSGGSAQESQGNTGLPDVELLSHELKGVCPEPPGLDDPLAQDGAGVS

[16] = test system: GABAA – Site 1; assay: Radioligand displacement; format: binding; details: 10 μM fenethylline, average of two replicates
[17] = test system: Swiss Webster mice; assay: Elevated plus maze; format: in vivo; details: EPM; fenethylline 20 mg/kg
[18] = test system: Adrenergic α1A; assay: Radioligand displacement; format: binding; details: 10 μM fenethylline, average of two replicates
[19] = test system: GABAA – Site 2; assay: Radioligand displacement; format: binding; details: 10 μM fenethylline, average of two replicates
[20] = test system: Adrenergic α1B; assay: Radioligand displacement; format: binding; details: 10 μM fenethylline, average of two replicates
[21] = target: Norepi. Transporter (Homo sapiens, UniProt P23975); assay: Radioligand displacement; format: binding; details: read-out: Inhib. (%)
[22] = target: Adrenergic β1 (Homo sapiens, UniProt P08588); assay: Radioligand displacement; format: binding; details: read-out: Inhib. (%)
[23] = test system: Rolipram; assay: Radioligand displacement; format: binding; details: 10 μM fenethylline, average of two replicates
[24] = target: Dopamine D2S (Homo sapiens, UniProt P14416); assay: Radioligand displacement; format: binding; details: read-out: Inhib. (%)
Sequence of Dopamine D2S (P14416 1-414 isoform P14416-2): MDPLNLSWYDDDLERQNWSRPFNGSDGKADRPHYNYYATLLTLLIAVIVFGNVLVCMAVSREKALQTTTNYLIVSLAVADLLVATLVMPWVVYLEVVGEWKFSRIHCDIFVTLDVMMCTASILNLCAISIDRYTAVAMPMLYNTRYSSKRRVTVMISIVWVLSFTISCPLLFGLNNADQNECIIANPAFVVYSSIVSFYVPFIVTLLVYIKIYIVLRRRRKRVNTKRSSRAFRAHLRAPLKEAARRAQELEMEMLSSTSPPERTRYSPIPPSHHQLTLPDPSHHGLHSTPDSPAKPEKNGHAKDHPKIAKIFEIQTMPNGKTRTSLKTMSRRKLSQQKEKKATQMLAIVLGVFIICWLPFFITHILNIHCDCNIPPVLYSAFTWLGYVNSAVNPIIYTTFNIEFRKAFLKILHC

[25] = target: Muscarinic M3 (Homo sapiens, UniProt P20309); assay: Radioligand displacement; format: binding; details: read-out: Inhib. (%)
[26] = target: Muscarinic M2 (Homo sapiens, UniProt P08172); assay: Radioligand displacement; format: binding; details: read-out: Inhib. (%)
Sequence of Muscarinic M2 (P08172 whole entry): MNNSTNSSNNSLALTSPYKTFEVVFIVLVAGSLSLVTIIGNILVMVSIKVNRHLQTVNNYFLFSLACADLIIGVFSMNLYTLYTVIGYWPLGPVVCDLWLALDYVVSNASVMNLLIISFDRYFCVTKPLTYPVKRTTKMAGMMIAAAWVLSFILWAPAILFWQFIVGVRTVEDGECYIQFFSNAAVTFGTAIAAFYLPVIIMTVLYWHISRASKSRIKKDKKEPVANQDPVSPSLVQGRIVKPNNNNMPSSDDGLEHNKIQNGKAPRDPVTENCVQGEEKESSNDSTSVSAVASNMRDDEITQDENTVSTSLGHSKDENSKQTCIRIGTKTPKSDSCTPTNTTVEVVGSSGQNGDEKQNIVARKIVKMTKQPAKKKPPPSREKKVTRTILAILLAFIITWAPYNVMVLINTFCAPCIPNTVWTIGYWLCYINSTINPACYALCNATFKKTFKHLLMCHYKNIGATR

[27] = target: Adenosine A1 (Homo sapiens, UniProt P30542); assay: Radioligand displacement; format: binding; details: read-out: Inhib. (%)
Sequence of Adenosine A1 (P30542 whole entry): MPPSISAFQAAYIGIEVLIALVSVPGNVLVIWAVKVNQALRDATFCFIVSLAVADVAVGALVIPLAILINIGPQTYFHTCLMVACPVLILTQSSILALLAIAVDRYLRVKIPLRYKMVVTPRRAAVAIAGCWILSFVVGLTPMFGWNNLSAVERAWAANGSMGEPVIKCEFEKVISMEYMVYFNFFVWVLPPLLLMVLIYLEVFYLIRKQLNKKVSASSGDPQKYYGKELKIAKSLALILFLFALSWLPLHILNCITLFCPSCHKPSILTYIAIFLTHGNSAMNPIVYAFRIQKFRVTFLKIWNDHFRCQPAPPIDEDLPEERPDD

Sequence of Prostanoid EP4 (P35408 whole entry): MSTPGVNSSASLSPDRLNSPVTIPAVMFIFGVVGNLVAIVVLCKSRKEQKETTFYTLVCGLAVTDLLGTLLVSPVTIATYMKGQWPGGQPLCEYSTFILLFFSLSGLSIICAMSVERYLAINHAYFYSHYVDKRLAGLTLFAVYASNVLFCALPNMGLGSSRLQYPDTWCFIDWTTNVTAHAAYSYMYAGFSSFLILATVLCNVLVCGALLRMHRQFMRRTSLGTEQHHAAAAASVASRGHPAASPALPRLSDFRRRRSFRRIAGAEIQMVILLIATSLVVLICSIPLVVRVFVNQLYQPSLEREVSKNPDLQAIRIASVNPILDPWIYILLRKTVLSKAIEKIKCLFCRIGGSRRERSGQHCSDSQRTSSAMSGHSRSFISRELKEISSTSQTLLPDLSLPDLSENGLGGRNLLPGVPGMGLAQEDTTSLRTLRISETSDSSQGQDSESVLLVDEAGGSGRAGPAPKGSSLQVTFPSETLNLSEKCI

SMILES: CC(Cc1ccccc1)NCCn1cnc2c1c(=O)n(C)c(=O)n2C (stereo not shown) [fenethylline, Fenethylline]
- inhibition at 10 µM [1]: 3%
- onset of stimulant (hyperlocomotor) activity ([2]; fenethylline 20 mg/kg vs amphetamine 2 mg/kg): more rapid than that of amphetamine alone
- locomotor activity after drug in control animals ([2]; open field, control (KLH) animals): clear dose-dependent increase
- induction of conditioned place preference [3]: induce CPP
- Inhib. (%) [4]: 9%
- inhibition at 10 µM [5]: 16%
- penetration of liberated amphetamine into brain tissue [6]: lags behind that of directly administered amphetamine
- binding across a suite of 31 CNS targets [7]: little binding
- Inhib. (%) [8]: 2%
- inhibition at 10 µM [9]: 7%
- Inhib. (%) [10]: 6%
- inhibition at 10 µM [11]: 3%
- inhibition at 10 µM [12]: 9%
- inhibition at 10 µM [13]: 16%
- Inhib. (%) [14]: 10%
- inhibition at 10 µM [15]: -5%
- Inhib. (%) [16]: 0%
- time spent in open arms after drug in control animals [17]: reduced the time
- Inhib. (%) [18]: 27%
- Inhib. (%) [19]: 5%
- Inhib. (%) [20]: 16%
- inhibition at 10 µM [21]: 10%
- inhibition at 10 µM [22]: 9%
- Inhib. (%) [23]: 9%
- inhibition at 10 µM [24]: 1%
- inhibition at 10 µM [25]: 2%
- inhibition at 10 µM [26]: -6%
- inhibition at 10 µM [27]: 0%
